Data from PMC11314561, “Design and Synthesis of Novel Aminoindazole-pyrrolo[2,3-b]pyridine Inhibitors of IKKα That Selectively Perturb Cellular Non-Canonical NF-κB Signalling” (Molecules, 2024).
Converted amounts (≈) assume the structure as drawn. Read-outs that look alike come from different tables or passages of the source.

Columns and labels:
IKKβ = target: T1, IKKβ (Homo sapiens, UniProt O14920); assay: DELFIA kinase assay, IKKβ; assay type: biochemical
T1 sequence (O14920 1-756): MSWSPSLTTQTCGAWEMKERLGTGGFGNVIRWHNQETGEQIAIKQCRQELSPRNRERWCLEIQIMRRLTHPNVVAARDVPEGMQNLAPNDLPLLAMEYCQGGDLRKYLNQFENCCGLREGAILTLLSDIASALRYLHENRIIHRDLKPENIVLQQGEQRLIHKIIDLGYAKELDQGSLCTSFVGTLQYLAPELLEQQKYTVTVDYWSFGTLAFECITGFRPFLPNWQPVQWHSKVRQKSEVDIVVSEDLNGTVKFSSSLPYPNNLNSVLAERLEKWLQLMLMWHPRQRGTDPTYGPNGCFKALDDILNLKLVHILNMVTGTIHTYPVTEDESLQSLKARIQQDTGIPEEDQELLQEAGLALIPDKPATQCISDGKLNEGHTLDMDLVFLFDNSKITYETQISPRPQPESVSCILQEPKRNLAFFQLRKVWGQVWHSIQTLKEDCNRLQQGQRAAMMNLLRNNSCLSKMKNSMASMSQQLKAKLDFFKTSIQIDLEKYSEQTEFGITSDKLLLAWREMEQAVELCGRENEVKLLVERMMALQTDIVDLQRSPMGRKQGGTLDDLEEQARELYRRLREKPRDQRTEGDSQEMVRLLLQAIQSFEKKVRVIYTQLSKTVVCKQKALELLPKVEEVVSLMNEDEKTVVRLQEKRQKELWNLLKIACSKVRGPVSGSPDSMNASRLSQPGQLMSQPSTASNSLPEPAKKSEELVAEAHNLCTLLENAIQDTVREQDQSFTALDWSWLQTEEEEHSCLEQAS
Description: (§1) IKKα and IKKβ inhibitory activity were determined using a dissociation-enhanced ligand fluorescent immunoassay (DELFIA) based on the protocol of HTScan™ IKKβ Kinase Assay (Cell Signaling Technology, Danvers, MA, USA) as described in [24].

IKKα = target: T2, IKKα (Homo sapiens, UniProt O15111); assay: DELFIA kinase assay, IKKα; assay type: biochemical; settings: DELFIA kinase assay
T2 sequence (O15111 1-745): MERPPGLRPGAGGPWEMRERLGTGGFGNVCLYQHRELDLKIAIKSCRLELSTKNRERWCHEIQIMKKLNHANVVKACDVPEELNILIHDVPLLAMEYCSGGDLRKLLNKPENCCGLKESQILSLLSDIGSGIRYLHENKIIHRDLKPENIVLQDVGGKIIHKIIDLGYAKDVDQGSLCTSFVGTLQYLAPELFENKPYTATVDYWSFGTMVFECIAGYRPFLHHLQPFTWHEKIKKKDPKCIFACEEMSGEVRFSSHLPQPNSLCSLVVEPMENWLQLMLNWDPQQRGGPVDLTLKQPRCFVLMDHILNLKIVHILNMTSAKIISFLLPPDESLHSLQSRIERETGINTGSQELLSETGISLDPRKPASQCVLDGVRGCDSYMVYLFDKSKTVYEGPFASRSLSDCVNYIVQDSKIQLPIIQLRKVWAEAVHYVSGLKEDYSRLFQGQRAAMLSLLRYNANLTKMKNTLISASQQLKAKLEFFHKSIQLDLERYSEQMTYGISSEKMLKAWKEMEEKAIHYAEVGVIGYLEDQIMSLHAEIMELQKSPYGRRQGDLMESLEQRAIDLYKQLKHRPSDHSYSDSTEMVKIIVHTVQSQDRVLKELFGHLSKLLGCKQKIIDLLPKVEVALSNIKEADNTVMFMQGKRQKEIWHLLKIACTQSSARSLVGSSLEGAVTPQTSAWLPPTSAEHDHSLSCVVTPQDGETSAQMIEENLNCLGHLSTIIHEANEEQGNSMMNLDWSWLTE
Excerpt: To examine the pyrrolo[2,3-b]pyridines as an alternative scaffold, we adopted the AIPP core because it had similar dimensions to SU909 (1), with HBD/HBA motifs positioned at the scaffold extremities to interact with both the hinge region and the G-loop wall of IKKα, a rationale we had previously proposed as the basis for imparting selectivity. A preliminary set of AIPP derivatives was designed and synthesised to explore its utility as an IKK-targeting scaffold, whilst incorporating additional functionality through which to introduce selectivity for the IKKα isoform (2–4; Figure 3). This was achieved by initially adopting two different approaches: either appending a hydrophobic moiety to the pyrrolo[2,3-b]pyridine motif as a fused form to afford the tricyclic derivatives 2 and 3, or as a phenyl substituent to introduce flexibility with respect to the central pyrrolo[2,3-b]pyridine moiety in 4. When assessed against IKKα and IKKβ using our in-house DELFIA kinase assay […] The pyrrolo[2,3-b]pyridine was bound to the hinge region in the classical HBA/HBD motif with the GK+3 amide backbone, whilst the aminoindazole projected towards the top of the pocket to interact with the G-loop (Figure 4A). […] In both isoforms, the 2-phenyl moiety protruded away from the hinge towards the exposed solvent area.
as §1

Turbidimetric solubility = assay type: physicochemical; settings: pH 7.4, aqueous buffer, kinetic from dmso stock, 0.01 M phosphate-buffered saline pH7.4
Description: Pharmacokinetic studies were contracted to Sygnature Discovery Limited. Turbidimetric Solubility was determined by diluting compound solutions (1 μM, 3 μM, 10 μM, 30 μM, 100 μM) prepared in DMSO into 0.01 M phosphate-buffered saline pH7.4. Turbidimetry was used as the endpoint by measuring absorbance at 620 nm.

| SMILES | Ki (IKKβ; read-out: Ki Values IKKβ) [µM] | Ki (IKKα) [µM] | solubility (Turbidimetric solubility) [µM] | Ki (IKKβ; Ki Values IKKβ) [µM] |
| --- | --- | --- | --- | --- |
| Nc1n[nH]c2ccc(-c3ccnc4[nH]c5c(c34)CCCC5)cc12 [Compound 2, 5-(6,7,8,9-Tetrahydro-5H-pyrido[2,3-b]indol-4-yl)-1H-indazol-3-amine] | 0.077 | 0.002 |  |  |
| Nc1n[nH]c2ccc(-c3ccnc4[nH]c5ccccc5c34)cc12 [Compound 3] | 0.005 | 0.003 |  |  |
| Nc1n[nH]c2ccc(-c3ccnc4[nH]c(-c5ccccc5O)cc34)cc12 [Compound 5a] | 0.042 | 0.004 |  |  |
| Nc1n[nH]c2ccc(-c3ccnc4[nH]c(-c5cccc(S(=O)(=O)N6CCOCC6)c5)cc34)cc12 [Compound 5aa] | 0.149 | 0.025 |  |  |
| CCOc1ccccc1-c1cc2c(-c3ccc4[nH]nc(N)c4c3)ccnc2[nH]1 [Compound 5b] | 0.086 | 0.008 |  |  |
| Nc1cccc(-c2cc3c(-c4ccc5[nH]nc(N)c5c4)ccnc3[nH]2)c1 [Compound 5c] | 0.028 | 0.005 |  |  |
| Nc1n[nH]c2ccc(-c3ccnc4[nH]c(-c5cccc(O)c5)cc34)cc12 [Compound 5d] | 0.026 | 0.005 |  |  |
| COc1cccc(-c2cc3c(-c4ccc5[nH]nc(N)c5c4)ccnc3[nH]2)c1 [Compound 5e] | 0.04 | 0.005 |  |  |
| Nc1n[nH]c2ccc(-c3ccnc4[nH]c(-c5cc(O)cc(F)c5)cc34)cc12 [Compound 5f] | 0.042 | 0.004 |  |  |
| COc1cc(F)cc(-c2cc3c(-c4ccc5[nH]nc(N)c5c4)ccnc3[nH]2)c1 [Compound 5g] | 0.032 | 0.003 |  |  |
| Nc1n[nH]c2ccc(-c3ccnc4[nH]c(-c5cccc(C(=O)O)c5)cc34)cc12 [Compound 5h] | 0.168 | 0.008 |  |  |
| NC(=O)c1cccc(-c2cc3c(-c4ccc5[nH]nc(N)c5c4)ccnc3[nH]2)c1 [Compound 5i] | 0.159 | 0.005 |  |  |
| CS(=O)(=O)Nc1cccc(-c2cc3c(-c4ccc5[nH]nc(N)c5c4)ccnc3[nH]2)c1 [Compound 5j] | 0.109 | 0.003 |  |  |
| CS(=O)(=O)c1cccc(-c2cc3c(-c4ccc5[nH]nc(N)c5c4)ccnc3[nH]2)c1 [Compound 5k] | 0.036 | 0.003 |  |  |
| COCCC(=O)Nc1cccc(-c2cc3c(-c4ccc5[nH]nc(N)c5c4)ccnc3[nH]2)c1 [Compound 5l] | 0.025 | 0.006 |  |  |
| COCCNC(=O)c1cccc(-c2cc3c(-c4ccc5[nH]nc(N)c5c4)ccnc3[nH]2)c1 [Compound 5m] | 0.107 | 0.015 |  |  |
| Nc1n[nH]c2ccc(-c3ccnc4[nH]c(-c5cccc(CNC6CCCC6)c5)cc34)cc12 [Compound 5n] | 0.191 | 0.01 |  |  |
| CC(C)COc1cccc(-c2cc3c(-c4ccc5[nH]nc(N)c5c4)ccnc3[nH]2)c1 [Compound 5o] | 0.458 | 0.019 |  |  |
| Nc1n[nH]c2ccc(-c3ccnc4[nH]c(-c5cccc(CNc6ccccc6)c5)cc34)cc12 [Compound 5p] | 0.47 | 0.035 |  |  |

| SMILES | Ki (IKKβ; read-out: Ki Values IKKβ) [µM] | Ki (IKKα) [µM] | solubility (Turbidimetric solubility) [µM] | Ki (IKKβ; Ki Values IKKβ) [µM] |
| --- | --- | --- | --- | --- |
| Nc1n[nH]c2ccc(-c3ccnc4[nH]c(-c5ccccc5OCc5ccccc5)cc34)cc12 [Compound 5q] | 1.06 | 0.057 |  |  |
| Nc1n[nH]c2ccc(-c3ccnc4[nH]c(-c5ccc(OCc6ccccc6)cc5)cc34)cc12 [Compound 5s] | 0.189 | 0.016 |  |  |
| Cc1ccc(S(=O)(=O)Nc2cccc(-c3cc4c(-c5ccc6[nH]nc(N)c6c5)ccnc4[nH]3)c2)cc1 [Compound 5t] | 1.05 | 0.01 |  |  |
| Cc1ccc(S(=O)(=O)Nc2ccc(-c3cc4c(-c5ccc6[nH]nc(N)c6c5)ccnc4[nH]3)cc2)cc1 [Compound 5u] | 0.067 | 0.004 |  |  |
| CN1CCN(C(=O)c2cccc(-c3cc4c(-c5ccc6[nH]nc(N)c6c5)ccnc4[nH]3)c2)CC1 [Compound 5v] | 0.215 | 0.024 |  |  |
| Nc1n[nH]c2ccc(-c3ccnc4[nH]c(-c5cccc(OCc6ccccn6)c5)cc34)cc12 [Compound 5w] | 0.402 | 0.016 |  |  |
| Nc1n[nH]c2ccc(-c3ccnc4[nH]c(-c5cccc(OCC6CCOCC6)c5)cc34)cc12 [Compound 5x] | 0.122 | 0.008 |  |  |
| Nc1n[nH]c2ccc(-c3ccnc4[nH]c(-c5cccc(OCCN6CCOCC6)c5)cc34)cc12 [Compound 5y] | 0.029 | 0.009 |  |  |
| COc1ccc(COc2cccc(-c3cc4c(-c5ccc6[nH]nc(N)c6c5)ccnc4[nH]3)c2)cc1 [Compound 5z] | 0.166 | 0.043 |  |  |
| Nc1n[nH]c2ccc(-c3ccnc4[nH]c(-c5cc(F)cc(OCc6ccccc6)c5)cc34)cc12 [Compound 6a] | 5.03 | 0.059 |  |  |
| COCCOCc1cc(OCc2ccccc2)cc(-c2cc3c(-c4ccc5[nH]nc(N)c5c4)ccnc3[nH]2)c1 [Compound 6b] | 1.21 | 0.029 | 3.75 (≈ 1.95 µg/mL) |  |
| COCCNc1cc(OCc2ccccc2)cc(-c2cc3c(-c4ccc5[nH]nc(N)c5c4)ccnc3[nH]2)c1 [Compound 6c] |  | 0.026 | 2 (≈ 1.01 µg/mL) | 1.53 |
| Nc1n[nH]c2ccc(-c3ccnc4[nH]c(-c5ccc(OCc6ccccc6)nc5)cc34)cc12 [Compound 6d] | 0.022 | 0.012 |  |  |
| Nc1n[nH]c2ccc(-c3ccnc4[nH]c(-c5cncc(OCc6ccccc6)c5)cc34)cc12 [Compound 6e] | 1.55 | 0.021 | 6.5 (≈ 2.81 µg/mL) |  |
| Nc1n[nH]c2ccc(-c3ccnc4[nH]c(-c5cc(F)nc(CNc6ccccc6)c5)cc34)cc12 [Compound 6f] | 0.503 | 0.033 | 3.75 (≈ 1.69 µg/mL) |  |
| Nc1n[nH]c2ccc(-c3ccnc4[nH]c(-c5ccnc(SCc6ccccc6)c5)cc34)cc12 [Compound 6h] | 1.18 | 0.005 | 2 (≈ 0.897 µg/mL) |  |
| Nc1n[nH]c2ccc(-c3ccnc4[nH]c(-c5cc(F)nc(SCc6ccccc6)c5)cc34)cc12 [Compound 6i] | 3 | 0.127 |  |  |
| Nc1n[nH]c2ccc(-c3ccnc4[nH]c(-c5cc(OCc6ccccc6)ccn5)cc34)cc12 [Compound 6j] | 2.3 | 0.025 | 2 (≈ 0.865 µg/mL) |  |
| Nc1n[nH]c2ccc(-c3ccnc4[nH]c(-c5ccnc(OCCc6ccccc6)c5)cc34)cc12 [Compound 6l] | 1.6 | 0.042 |  |  |
